Experiments:
[1] = tested on: HTB94 chondrosarcoma cells; type: cell-based; details: after 8 hours; TIMP-3 1 nM preincubated with suramin 200 µg/ml; HTB94 cells
Protocol: (§1) Cells (HTB94 chondrosarcoma cells, primary porcine chondrocytes, or human osteoarthritic chondrocytes) were plated overnight (6 × 10^5 cells per well of a 12-well plate) in DMEM containing 10% FCS and washed three times in serum-free DMEM.
To evaluate endocytosis of exogenously added TIMP-3, cells were incubated with recombinant TIMP-3 (1 nM in 1.5 ml DMEM with 0.1% FCS) for 0–24 hours. Conditioned media were concentrated by precipitation with trichloroacetic acid [5% (v/v), 4°C, 18 hours]. After centrifugation (13,000 rpm, 4°C, 10 minutes), protein-containing pellets were resuspended in SDS sample buffer (30 µl), electrophoresed (7 µl) on a 10% polyacrylamide gel, and immunoblotted onto polyvinylidene fluoride. After blocking in 5% (m/v) BSA in Tris-buffered saline, TIMP-3 levels were analyzed using an M2 anti-FLAG antibody (Sigma-Aldrich), an alkaline phosphatase–conjugated anti-mouse secondary antibody (Promega, Southampton, UK), and a Western Blue stabilized substrate for alkaline phosphatase (Promega). Immunoblots were analyzed by densitometry using Phoretix 1D densitometry software (TotalLab, Newcastle-upon-Tyne, UK), and TIMP-3 remaining in the medium (mean ± S.D., n = 3) was calculated relative to pixel volume at a t of 0 hours (defined as 100%).

[2] = tested on: HTB94 chondrosarcoma cells; test: Accumulation of endogenous TIMP-3 in medium of HTB94 cells; type: cell-based; details: suramin 50–200 µg/ml, 30 hours
Protocol: as §1
Media were harvested, precipitated with trichloroacetic acid, and analyzed by immunoblotting using a rabbit anti–TIMP-3 polyclonal antibody (AB6000; Millipore, Hertfordshire, UK) and an alkaline phosphatase–conjugated anti-rabbit secondary antibody (Promega). […]

[3] = tested on: primary chondrocytes isolated from human OA cartilage; test: Accumulation of endogenous TIMP-3 in medium of human OA chondrocytes; type: cell-based; details: suramin 0–250 µg/ml, 48 hours
Protocol: Cells (HTB94 chondrosarcoma cells, primary porcine chondrocytes, or human osteoarthritic chondrocytes) were plated overnight (6 × 10^5 cells per well of a 12-well plate) in DMEM containing 10% FCS and washed three times in serum-free DMEM. […] Media were harvested, precipitated with trichloroacetic acid, and analyzed by immunoblotting using a rabbit anti–TIMP-3 polyclonal antibody (AB6000; Millipore, Hertfordshire, UK) and an alkaline phosphatase–conjugated anti-rabbit secondary antibody (Promega). TIMP-3 in the medium (mean ± S.D., n = 3) was calculated relative to the pixel volume of untreated cells (defined as 1).

[4] = tested on: TIMP-1 mRNA; test: TIMP-1 mRNA analysis in HTB94 cells (quantitative PCR); type: cell-based; details: suramin 0–250 µg/ml, 18 hours
Protocol: (§2) HTB94 chondrosarcoma cells or primary human chondrocytes (1 × 10^6 cells) were treated in triplicate with 0–250 µg/ml suramin in serum-free DMEM for 18–48 hours. Total RNA was isolated from cells using an RNeasy mini kit (Qiagen, Crawley, UK) and cDNA was synthesized (reverse transcriptase kit; Applied Biosystems, Foster City, CA). Levels of TIMP-1, TIMP-2, TIMP-3, LRP1, and RPLP0 internal reference mRNA were quantified by real-time polymerase […] chain reaction on a Corbett Rotor-Gene 6000 (Corbett Life Science, Mortlake, NSW, Australia) using TaqMan Fast Universal PCR Master Mix (Applied Biosystems) and TaqMan probes (Applied Biosystems) Hs01092512_g1 for TIMP-1, Hs00234278_m1 for TIMP-2, Hs00165949_m1 for TIMP-3, Hs00233856_m1 for LRP1, and Hs99999902_m1 for RPLP0. The ΔΔ threshold cycle values (mean ± S.D., n = 3 technical replicates) are shown relative to control untreated HTB94 cells (defined as 1).

[5] = tested on: TIMP-2 mRNA; test: TIMP-2 mRNA analysis in HTB94 cells (quantitative PCR); type: cell-based; details: suramin 0–250 µg/ml, 18 hours
Protocol: as §2

[6] = tested on: TIMP-3 mRNA; test: TIMP-3 mRNA analysis in human OA chondrocytes (quantitative PCR); type: cell-based; details: suramin 0–250 µg/ml, 48 hours
Protocol: as §2

[7] = tested on: HTB94 chondrosarcoma cells; test: Cell viability assay (MTS), HTB94 cells; type: cell-based; details: suramin 0–250 µg/ml, 72 hours
Protocol: (§3) HTB94 chondrosarcoma cells or human OA chondrocytes (10^3 cells per well in 96-well plates) were plated overnight in DMEM with 10% FCS. Cells were washed in serum-free cartilage medium and treated for 48–72 hours with suramin (0–250 µg/ml) or sodium nitroprusside (10 mM) as a control to induce cell death. Cell viability was then assessed using the 3-(4,5-dimethylthiazol-2-yl)-5-(3-carboxymethoxyphenyl)-2-(4-sulfophenyl)-2H-tetrazolium CellTiter Cell Proliferation Assay (Promega) according to the manufacturer’s instructions (mean ± S.D., n = 3).

[8] = tested on: human OA chondrocytes; test: Cell viability assay (MTS), human OA chondrocytes; type: cell-based; details: suramin 0–250 µg/ml, 48 hours
Protocol: as §3

[9] = target: T1, MMP-2 (Homo sapiens, UniProt P08253); test: MMP-2 activity in vitro (data not shown); type: biochemical
T1 sequence (P08253 110-660): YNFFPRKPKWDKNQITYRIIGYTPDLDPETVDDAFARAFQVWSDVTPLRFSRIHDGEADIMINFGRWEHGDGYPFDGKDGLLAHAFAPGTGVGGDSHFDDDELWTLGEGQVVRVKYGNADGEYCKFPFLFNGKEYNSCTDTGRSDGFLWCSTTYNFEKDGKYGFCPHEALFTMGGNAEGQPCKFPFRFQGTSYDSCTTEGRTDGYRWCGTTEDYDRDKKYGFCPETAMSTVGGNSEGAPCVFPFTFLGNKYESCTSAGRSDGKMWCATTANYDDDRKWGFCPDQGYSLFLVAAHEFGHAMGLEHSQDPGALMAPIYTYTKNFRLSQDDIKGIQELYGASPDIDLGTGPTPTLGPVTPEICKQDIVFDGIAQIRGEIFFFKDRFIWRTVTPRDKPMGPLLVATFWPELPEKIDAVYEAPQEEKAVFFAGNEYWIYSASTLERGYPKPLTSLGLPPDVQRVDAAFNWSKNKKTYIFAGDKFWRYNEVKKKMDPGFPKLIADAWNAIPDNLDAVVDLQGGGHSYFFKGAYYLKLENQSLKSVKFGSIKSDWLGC

[10] = tested on: MMP-9; parameters: method as in Taniguti et al., 2012; details: ref Taniguti et al., 2012; cited from earlier work
[11] = tested on: rat inflammatory arthritis model; parameters: method as in Sahu et al., 2012; details: ref Sahu et al., 2012; cited from earlier work
[12] = parameters: method as in Voogd et al., 1993; details: ref Voogd et al., 1993; cited from earlier work

In the case of `Cc1ccc(C(=O)Nc2ccc(S(=O)(=O)O)c3cc(S(=O)(=O)O)cc(S(=O)(=O)O)c23)cc1NC(=O)c1cccc(NC(=O)Nc2cccc(C(=O)Nc3cc(C(=O)Nc4ccc(S(=O)(=O)O)c5cc(S(=O)(=O)O)cc(S(=O)(=O)O)c45)ccc3C)c2)c1` [suramin], the “TIMP-3 remaining in the medium” value [1] is reported as “more than 85%”, the “endogenous TIMP-3 in the medium” value [2] is reported as “accumulated” and the “endocytosis of endogenously expressed TIMP-3” value [3] is reported as “inhibited endocytosis”. The “TIMP-1 mRNA levels” value [4] was “no effect”, the “TIMP-2 mRNA levels” value [5] was “no effect” and the “TIMP-3 mRNA levels” value [6] was “without any significant change”. For the same compound, the “cell viability (MTS)” value [7] was “no effect”, the “cell viability (MTS)” value [8] was “did not affect” and the “cell viability (MTS)” value ([8]; listed as Suramin) was “without any significant change”. The “MMP-2 activity in vitro” value [9] was “inhibit MMP-2 activity”, the MMP-9 activity [10] was “inhibit MMP-9 activity” and the cartilage damage [11] was “ameliorate cartilage damage”. For the same compound, the oral bioavailability [12] was “not orally bioavailable”.

From article PMC5588548, “Suramin Inhibits Osteoarthritic Cartilage Degradation by Increasing Extracellular Levels of Chondroprotective Tissue Inhibitor of Metalloproteinases 3” (Molecular Pharmacology, 2017)
